Consider one compound from patent US12252472B1, “Barbituric acid derivatives, their preparation and use thereof as leukocyte transmigration inhibitors and for treating inflammatory diseases, autoimmune diseases and cancer” (BAR-ILAN UNIVERSITY, priority 2017, dated 2025).

Assay [1] relates to HUVECs intercellular junctions. Nature of the assay: Phenotypic changes at endothelial junctions (MesenFlow system). The format is cell-based, human. The text has this:
This manifestation was termed “Fluttering”. Fluttering was characterized by a rapid fluctuating movement at the intercellular junctions of adjacent HUVECs, and predominantly within tri-cellular corners. This was characterized by a rapid change in phase at the cellular edges consistent with a physical movement that was associated with no leukocytes adhesion or migration within these regions (FIG. 27). […] This observation is therefore representative of a phenotype that is indicative of a disruption in leukocyte transmigration.

The subject of the next assay is C57BL/6J mice. Kind of assay: Thioglycollate peritonitis model, leukocyte counting in peritoneal liquid. Format: in vivo, mouse. On the procedure: C57BL/6J (The Jackson Laboratory) female mice were chosen for this experiment. The acute inflammation was induced by thioglycollate injection into the abdominal cavity as described by Hoover-Plow J. L. et al. (Strain and model dependent differences in inflammatory cell recruitment in mice. Inflammation Research, 2008. 57(10): p. 457-463).
Mice were injected intraperitoneally with 0.5 mL of 4% thioglycollate (Becton Dickinson, Cockeysville, MD) and after 6 or 72 hours corresponding to peak neutrophil (6 hours) and macrophage (72 hours) recruitment, peritoneal lavage fluid, and cells were harvested as previously described by Ploplis, V. A. et al. (Plasminogen deficiency differentially affects recruitment of inflammatory cell populations in mice. Blood, 1998. 91(6): p. 2005-2009). The number of neutrophils and macrophages (Tang, L. P. and J. W. Eaton, Fibrin (Ogen) Mediates Acute Inflammatory Responses to Biomaterials. Journal of Experimental Medicine, 1993. 178(6): p. 2147-2156) accumulating in the lavage were determined from the enzyme activity of myeloperoxidase for neutrophils (Himmelhoch, S. R., et al., Purification of myeloperoxidases from the bone marrow of the guinea pig. Biochemistry, 1969. 8(3): p. 914-21) and non-specific esterase for macrophage/monocytes (Torres, J. L., R. S. Rush, and A. R. Main, Physical and chemical characterization of a horse serum carboxylesterase. Arch Biochem Biophys, 1988. 267(1): p. 271-9).
(§1) After inducing the inflammation (peritonitis), compound of Formula 2 was injected at a concentration of 12.5 mg/kg (DMSO, 01% in PBS, IP), twice (one day after the other). The next day, mice were sacrificed and the peritoneal liquid was collected from the control and treated mice (n=3 for each group). Two assays were conducted for the estimation of the possible anti-inflammatory effect of compound of Formula 2: leukocyte counting (the total amount and the calculation of the percentage of different leukocyte fractions) and a flow cytometry.

For another assay, the system named is DBA/1 mice. Nature of the assay: Collagen induced arthritis (CIA) model. The format is in vivo, mouse. On the procedure: Male DBA/lOlaHsd mice (7-8 weeks of age) were injected with CII (Type II collagen)+CFA (complete Frennd's adjuvant) emulsion on Day 0 (S.C.) to persuade collagen induced arthritis (CIA). On Day 21 the animals receive the same amount of the emulsion as a booster. Twice between Days 0 and 18 after immunization (before enrollment begins), both hind paws of all mice were measured using calipers to establish baseline values for paw thickness. On Day 22 mice were enrolled into groups when they first shown paw swelling and treatment was initiated. A working formulation of compound of Formula 2 was administered by IP injections at 15 mg/kg dose at q3w regiment. Mock treated (vehicle) control group was administered IP with the same volume and regiment as a treatment group. Administration was performed at a constant volume dosage based on individual body weight. The severity of CIA was monitored daily. The CIA scoring is on the scale of 0 to 16 (0 to 4 for each paw, adding the scores for all 4 paws). On day 43 (24 hours post last dose administration) all paws thickness was measured and mice were euthanized. All limbs from each mouse were placed in individual labeled tubes, fixed in 4% buffered formalin, paraffin embedded and sectioned. Histological score was assessed using hematoxylin and eosin (H&E) stained sections. Joints were scored for inflammation, cartilage damage, pannus formation, and bone resorption on a scale of 0 to 3 for each readout. Two-way ANOVA statistical analysis was performed.

In assay [2] the test system is mouse monocytes / macrophages from the abdominal cavity. Nature of the assay: Ten-color flow cytometry (CD115, F4/80) of peritoneal cells from the peritonitis model. Format: in vivo. The method, then: as §1
Flow cytometry based on a fluorescent protein marker (CD115) was selected for the analysis. It is generated by monocytes and localized to their plasma membrane as described by Yang, J. et al. (Monocyte and macrophage differentiation: circulation inflammatory monocyte as biomarker for inflammatory diseases. Biomark Res, 2014. 2(1): p. 1). This protein is able to specifically recognize and bind a F4/80 antibody that activates the immune system macrophages (Lin, H. H., et al., The macrophage F4/80 receptor is required for the induction of antigen-specific efferent regulatory T cells in peripheral tolerance. Journal of Experimental Medicine, 2005. 201(10): p. 1615-1625).
Cell viability before the FACS experiment was assessed by incubation in the amine-reactive dye Aqua (Invitrogen) (1:500) dilution in Ca^2+ and Mg^2+-free PBS) for 30 minutes in the dark at room temperature (RT), followed by a single wash in PBS. For all experiments, cells were incubated in 0.5 μg Fc Block (BD Biosciences) for 10 minutes at room temperature (RT). Surface staining was performed in the dark for 30 minutes at 4° C. in staining buffer. A surface marker (CD115, APC clone AFS98, in dilution 1:100, from eBioscience) was used. […] Fluorescence minus one (FMO) controls were used for gating analyses to distinguish positively from negatively staining cell populations. […] Compensation matrices were calculated and applied using FlowJo software (Tree Star). […]

Where [3] appears, read: abdominal cavity, treated vs non-treated mice, FACS.

`COC(=O)c1ccc(COc2c(C=C3C(=O)NC(=O)NC3=O)cccc2C(C)(C)C)cc1` [Formula 2, methyl 4-((2-(tert-butyl)-6-((2,4,6-trioxotetrahydropyrimidin-5(2H)-ylidene)methyl)phenoxy)methyl) benzoate]: the junctional integrity entry in assay [1] (HUVECs co-culture) is reported as “maintained”. Besides, in assay [1] (all HUVECs co-culture experiments), the “Fluttering at HUVEC intercellular junctions” value is listed as “observed”. Besides, in the assay with C57BL/6J mice (12.5 mg/kg IP, twice), the “amount of neutrophils and monocytes” value is listed as “not affected”; the “increase of the amount of dendritic cells in the peritoneal liquid” value was found to be 2.5 fold; the “reduction of the amount of lymphocytes in the peritoneal liquid” value worked out at 85%; the “total amount of leukocytes in the abdominal liquid” value is “not affected”. Further, the “White blood cell (WBC) counts of peritoneal fluids” value in the assay on C57BL/6J mice (FIG. 8 legend: 30 μM injected once on the third day, n=6) was “reduced”. Also, in the assay with DBA/1 mice (15 mg/kg IP q3w), the “Histological score of joints” value is reported as “significantly reduced”. The “fore and hind limb thickness” value with DBA/1 mice (15 mg/kg IP q3w, day 43) is recorded as “significantly reduced”. Moreover, the CIA score entry in the assay with DBA/1 mice (FIG. 23 legend: 15 mg/kg SC) was “therapeutic effect”. For the same compound, the “histological evaluation of talus and calcaneum joint sections” value with DBA/1 mice (representative sections, treated mouse (FIG. 25B)) is “No cartilage and bone and erosion and profuse infiltration of inflammatory cells are present”. Also, in assay [2] (C57BL/6 mouse monocytes), the “monocyte phenotype, CD115 expression (shift in pattern of gates 1-4)” value is recorded as “reduced differentiation”. Further, in assay [2] (setting [3]), the “amount of activated (high macrophages)” value is given as “considerably decreased” and the “level of non-activated (low macrophage)” value is given as “elevated”.
